# Assay results taken from patent publication US20040002545A1, “Thiazole derivatives of 2-methoxyimino-2-(pyridinyloxymethyl)-phenyl-acetamides useful as fungicides” (priority 2003, published 2004).
# Experiments:
# Type in all cases: in vivo
# Septoria tritici—SEPTTR = experiment: Wheat leaf blotch greenhouse test, curative and protectant; design: scale not given here; settings: for SEPTTR 3DC: 3DC (curative); for SEPTTR 7DP: 7DP (protectant)
# Text: (§1) Pathogen propagation and host inoculation. Plants were inoculated with various pathogens 1-4 days before compound application (curative tests) and 1-7 days after compound application (protectant tests). For all wheat trials, compounds were applied at growth stage 1.2, when the second leaf was expanded to about ½ of its final size (12 days after seeds were first watered). Information on the growth stages of other plant species at the time compound application and on the propagation and inoculation procedures associated with each pathogen is given below.
# SEPTTR: Fresh inoculum is prepared in a manner similar to that described for LEPTNO. In this case, a brownish layer of spores covers the entire surface of the PDA plate and only a few plates are needed to obtain a large number of spores. After incubation overnight in the 20° C. dew chamber, inoculated plants were continually misted for 3 days in a 20° C. greenhouse, then grown at 20° C. without mist until disease symptoms had fully developed (usually about 10 days).
# (§2) LEPTNO: Fresh inoculum was prepared by streaking PDA plates with spore exudates from an older plate using a sterile spatula. The plates were incubated at 18° C. under black lights and typically produced large quantities of spores in pink exudate in 6-7 days. A small amount of tap water was poured onto several plates and spores were collected by scraping the exudates off the PDA surface into the water. The spore solutions were combined in a large beaker, diluted with 200-300 ml of water and filtered through a 180 u mesh screen. The spore concentration was determined using a hemacytometer and water was added to obtain a final concentration of 10^7 spores/ml. Approximately 3 large drops of Tween 20 were added for each 100 ml of volume and the spore solution was sprayed to run-off on wheat seedlings. Inoculated plants were placed in a 20° C. dew chamber overnight, then moved to a 20° C. greenhouse where they were continually misted (12 seconds of mist every minute) until disease symptoms were fully developed (8-10 days).
# [1] = test system: Puccinia recondita—PUCCRT; experiment: Wheat brown rust greenhouse test, curative and protectant; settings: for PUCCRT 3DC: 3DC (curative); for PUCCRT 7DP: 7DP (protectant)
# Text: as §1
# PUCCRT: Spores of the obligate pathogen PUCCRT were collected from infected plants with a vacuum apparatus and stored at 4° C. Approximately 0.1 g of fresh spores (stored at 4° C. for less than 30 days) was mixed with several drops of Tween 20. The thick spore paste was diluted to 100 ml with water and sprayed to run-off on wheat seed seedlings. Plants inoculated with PUCCRT were kept in a 20° C. dew chamber overnight and then transferred to a 20° C. growth chamber where symptoms developed in 8-9 days.
# Septoria nodorum—LEPTNO = experiment: Wheat glume blotch greenhouse test, curative and protectant; design: scale not given here; settings: for LEPTNO 3DC: 3DC (curative); for LEPTNO 7DP: 7DP (protectant)
# Text: as §1, §2
# Erysiphe graminis—ERYSGT = experiment: Wheat powdery mildew greenhouse test, curative and protectant; design: scale not given here; settings: for ERYSGT 3DC: 3DC (curative); for ERYSGT 7DP: 7DP (protectant)
# Text: as §1
# ERYSGT: Wheat seedlings were infected with fresh spores from the obligate pathogen ERYSGT by shaking heavily infected wheat plants over them. Plants that had been dusted with ERYSGT spores were incubated in the greenhouse at 22° C. until disease symptoms had fully developed (usually 7 days).
Compound,SEPTTR 3DC (Septoria tritici—SEPTTR; rate 15.5 g ai/ha),SEPTTR 7DP (Septoria tritici—SEPTTR; rate 15.5 g ai/ha),SEPTTR 3DC (Septoria tritici—SEPTTR; rate 31.3 g ai/ha),SEPTTR 7DP (Septoria tritici—SEPTTR; rate 31.3 g ai/ha),SEPTTR 3DC (Septoria tritici—SEPTTR; rate 62.5 g ai/ha),SEPTTR 7DP (Septoria tritici—SEPTTR; rate 62.5 g ai/ha),SEPTTR 3DC (Septoria tritici—SEPTTR; rate 125 g ai/ha),SEPTTR 7DP (Septoria tritici—SEPTTR; rate 125 g ai/ha),PUCCRT 3DC ([1]; rate 15.5 g ai/ha),PUCCRT 7DP ([1]; rate 15.5 g ai/ha),PUCCRT 3DC ([1]; rate 31.3 g ai/ha),PUCCRT 7DP ([1]; rate 31.3 g ai/ha),PUCCRT 3DC ([1]; rate 62.5 g ai/ha),PUCCRT 7DP ([1]; rate 62.5 g ai/ha),PUCCRT 3DC ([1]; rate 125 g ai/ha),PUCCRT 7DP ([1]; rate 125 g ai/ha),LEPTNO 3DC (Septoria nodorum—LEPTNO; rate 15.5 g ai/ha),LEPTNO 7DP (Septoria nodorum—LEPTNO; rate 15.5 g ai/ha),LEPTNO 3DC (Septoria nodorum—LEPTNO; rate 31.3 g ai/ha),LEPTNO 7DP (Septoria nodorum—LEPTNO; rate 31.3 g ai/ha),other results
2-[[[3-chloro-5-[5-[3-methylisothiazoly]]-2-pyridinyl]-oxy]methyl]-alpha-(methoxyimino)-N-methylbenzeneacetamide [Compound 1],22,53,59,88,85,76,99,91,93,80,99,94,100,100,100,100,58,46,60,50,LEPTNO 3DC (Septoria nodorum—LEPTNO; rate 62.5 g ai/ha): 53; LEPTNO 7DP (Septoria nodorum—LEPTNO; rate 62.5 g ai/ha): 95; LEPTNO 3DC (Septoria nodorum—LEPTNO; rate 125 g ai/ha): 71; LEPTNO 7DP (Septoria nodorum—LEPTNO; rate 125 g ai/ha): 98; ERYSGT 3DC (Erysiphe graminis—ERYSGT; rate 15.5 g ai/ha): 88; ERYSGT 7DP (Erysiphe graminis—ERYSGT; rate 15.5 g ai/ha): 51; ERYSGT 3DC (Erysiphe graminis—ERYSGT; rate 31.3 g ai/ha): 92; ERYSGT 7DP (Erysiphe graminis—ERYSGT; rate 31.3 g ai/ha): 45; ERYSGT 3DC (Erysiphe graminis—ERYSGT; rate 62.5 g ai/ha): 94; ERYSGT 7DP (Erysiphe graminis—ERYSGT; rate 62.5 g ai/ha): 88; ERYSGT 3DC (Erysiphe graminis—ERYSGT; rate 125 g ai/ha): 97; ERYSGT 7DP (Erysiphe graminis—ERYSGT; rate 125 g ai/ha): 100
"CNC(=O)C(=NOC)c1ccccc1COc1ncc(-c2snc(C)c2Br)cc1C [Compound 2, 2-[[[3-methyl-5-[5-[4-bromo-3-methylisothiazolyl]]-2-pyridinyl]-oxy]methyl]-alpha-(methoxyimino)-N-methylbenzeneacetamide]",97,85,83,85,90,96,95,97,50,100,63,100,93,100,93,100,65,65,73,79,LEPTNO 3DC (Septoria nodorum—LEPTNO; rate 62.5 g ai/ha): 47; LEPTNO 7DP (Septoria nodorum—LEPTNO; rate 62.5 g ai/ha): 84; LEPTNO 3DC (Septoria nodorum—LEPTNO; rate 125 g ai/ha): 67; LEPTNO 7DP (Septoria nodorum—LEPTNO; rate 125 g ai/ha): 98
